Results: patent US8410066B2, “Heterobifunctional inhibitors of E-selectins and CXCR4 chemokine receptors” (GlycoMimetics, Inc., priority 2009, dated 2013)
pIC50: −log10 of the molar value. Blank lines part the entries; values can stand above or below the compound they belong to.

Columns and labels:
[1] = tested on: E-selectin/Ig chimera; assay: E-selectin competitive binding assay (sLe^a polyacrylamide conjugate); conditions: FIGS. 4 and 5
Procedure: The inhibition assay to screen glycomimetic antagonists of E-selectin is a competitive binding assay, which allows the determination of IC50 values. Briefly, E-selectin/Ig chimera is immobilized by incubation at 37° C. in 96 well microtiter plates for 2 hours. To reduce nonspecific binding, bovine serum albumin is added to each well and incubated at room temperature for 2 hours. The plate is washed and serial dilutions of the test compounds are added to the wells in the presence of conjugates of biotinylated, sLe^a polyacrylamide with streptavidin/horseradishperoxidase and incubated for 2 hours at room temperature. To determine the amount of sLe^a bound to immobilized E-selectin after washing, the peroxidase substrate, 3,3′,5,5′ tetramethylbenzidin (TMB) is added. After 3 minutes, the enzyme reaction is stopped by the addition of H3PO4 and the absorbance of light at a wavelength of 450 nm is determined. The concentration of test compound required to inhibit binding by 50% is determined and reported as the IC50 value for each glycomimetic E-selectin antagonist. In addition to reporting the absolute IC50 value as measured above, relative IC50 values are determined by a ratio of the IC50 measured for the test compound to that of an internal control (reference) stated for each assay.

[2] = target: T1, CXCR4 on the surface of SupT1 cells (Homo sapiens, UniProt P61073); assay: Inhibition of binding of anti-CXCR4-PE antibody to CXCR4 on SupT1 cells (flow cytometry); conditions: for % positive / Mean fluorescence intensity / Median fluorescence intensity: anti-CXCR4-PE
T1 construct: constitutively express CXCR4 on the cell surface; host or cells: SupT1 cells
Excerpt: The assay assesses the ability of glycomimetic compounds to inhibit binding of an anti-CXCR4 antibody conjugated to phycoerythrin (“PE”), to CXCR4 on the surface of SupT1 cells. SupT1 cells are a T lymphoblast derived from a lymphoblastic leukemia and constitutively express CXCR4 on the cell surface. The cells are purchased from ATCC (ATCC number CRL-1942). Anti-human CXCR4-phycoerythrin monoclonal antibody (anti-CXCR4-PE) is purchased from R&D Systems (catalog number FAB170P, clone 12G5). The cells are grown in RPMI 1640 medium supplemented with 10% FBS. Approximately 2×10^6 cells are washed three times by centrifuging the cells at 400×g for 10 minutes and the cell pellet is resuspended in PBS plus 0.05% BSA. After the third centrifugation, the cell pellet is resuspended in PBS plus BSA to a concentration of 5×10^5 cells per ml. To block non-specific binding, human […] is added to the cells to a concentration of 1 μg per 10^5 cells. Next, 200 μl (1×10^5 cells) are added to 5 ml polypropylene round-bottom tubes (Falcon 2063 tubes). Compound #1 (Example 1) (lot 31-190) is added to the cells at final concentrations of 0.5, 5, 10, and 50 μM. To achieve a final concentration of 0.5 μM, 2.2 μl of 50 μM Compound #1 plus 19.8 μl of PBS/BSA are added to 200 μl of cells. To achieve a final concentration of 5 μM, 22 μl of 50 μM Compound #1 are added to 200 μl of cells. To achieve a final concentration of 10 μM, 4.4 μl of 500 μM Compound #1 plus 17.6 μl of PBS/BSA are added to 200 μl of cells. To achieve a final concentration of 50 μM, 22 μl of 500 μM Compound #1 are added to 200 μl of cells. Other aliquots of cells are treated with either 1 or 5 μM of the bicyclam CXCR4 antagonist AMD-3100 (Sigma Aldrich, catalog #A5602). To achieve a final concentration of 1 μM AMD-3100, 4.4 μl of 50 μM AMD-3100 plus 17.6 μl of PBS/BSA are added to 200 μl of cells and to achieve a final concentration of 5 μM, 22 μl of 50 μM AMD-3100 are added to 200 μl of cells. In addition, one tube of cells is treated with 1 μg/ml of SDF-1α (R&D Systems catalog #350-NS), the natural ligand of CXCR4. The tubes are placed at 4° C. for 15 minutes. Subsequently, each tube receives 10 μl of anti-CXCR4-PE, except one tube of cells receives 10 μl of mouse IgG 2A isotype control antibody. The tubes are incubated at 4° C. for 45 minutes. The cells are washed twice with PBS plus 0.05% BSA and the final cell pellet is resuspended in 100 μl of PBS/BSA. To fix the samples, 100 μl of 2% formaldehyde (Polysciences, Inc. ultrapure EM grade, catalog number 04018) are added to each tube. Flow cytometry is performed using a Cytomation MoFlo instrument.

T1 sequence (P61073 whole entry): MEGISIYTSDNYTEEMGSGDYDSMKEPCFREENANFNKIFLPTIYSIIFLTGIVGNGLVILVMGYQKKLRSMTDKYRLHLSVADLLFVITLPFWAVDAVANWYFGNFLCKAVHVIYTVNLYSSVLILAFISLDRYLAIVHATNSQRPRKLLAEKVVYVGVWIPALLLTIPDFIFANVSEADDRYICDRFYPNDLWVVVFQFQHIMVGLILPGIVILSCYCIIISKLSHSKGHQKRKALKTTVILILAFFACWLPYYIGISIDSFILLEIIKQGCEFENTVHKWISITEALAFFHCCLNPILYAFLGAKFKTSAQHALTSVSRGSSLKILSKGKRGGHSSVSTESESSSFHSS

E-selectin antagonist activity (in words) [1]: potent E-selectin antagonist
% positive ([2]; 0.5 μM inhibitor): 98.69%
Mean fluorescence intensity ([2]; 0.5 μM inhibitor): 68.49
Median fluorescence intensity ([2]; 0.5 μM inhibitor): 54.25
% positive ([2]; 5 μM inhibitor): 81.48%
Mean fluorescence intensity ([2]; 5 μM inhibitor): 22.25
Median fluorescence intensity ([2]; 5 μM inhibitor): 13.34
% positive ([2]; 10 μM inhibitor): 42.06%
Mean fluorescence intensity ([2]; 10 μM inhibitor): 14.08
Median fluorescence intensity ([2]; 10 μM inhibitor): 6.04
% positive ([2]; 50 μM inhibitor): 12.80%
Mean fluorescence intensity ([2]; 50 μM inhibitor): 11.08
Median fluorescence intensity ([2]; 50 μM inhibitor): 3.92
pIC50 ([2]; anti-CXCR4-PE clone 12G5, 4° C.): 5.08
Compound: CC1CC(C(=O)NCCNCc2ccc(CN3CCCNCCNCCCNCC3)cc2)CC(OC2OC(CO)C(O)C(O[C@@H](CC3CCCCC3)C(=O)O)C2OC(=O)c2ccccc2)C1OC1OC(C)C(O)C(O)C1O (stereo partly shown) [Compound #1]
Inhibition of binding of anti-CXCR4-PE antibody to CXCR4 (in words) [2]: inhibits binding of anti-CXCR4-PE to SupT1 cells in a dose-dependent manner

Inhibition of binding of anti-CXCR4-PE antibody to CXCR4 (in words) [2]: efficiently inhibits binding
% positive ([2]; 1 μg/ml inhibitor): 12.37%
Mean fluorescence intensity ([2]; 1 μg/ml inhibitor): 10.25
Median fluorescence intensity ([2]; 1 μg/ml inhibitor): 4.07
Compound: SDF-1α

% positive ([2]; 1 μM inhibitor): 57.57%
Mean fluorescence intensity ([2]; 1 μM inhibitor): 15.60
Median fluorescence intensity ([2]; 1 μM inhibitor): 7.77
% positive ([2]; 5 μM inhibitor): 12.42%
Mean fluorescence intensity ([2]; 5 μM inhibitor): 9.98
Median fluorescence intensity ([2]; 5 μM inhibitor): 3.92
Compound: c1cc(CN2CCCNCCNCCCNCC2)ccc1CN1CCCNCCNCCCNCC1 [AMD-3100, reference compound]
